Source: patent publication US9963455B2, “Pyrazolo[1,5-a]pyrimidines as antiviral compounds” (Curovir AB, priority 2014, dated 2018)

Tested on: coxsackie B virus strain 2
Test: CPE inhibition in mammalian cell culture, Cox-B2
Assay type: cell-based
Conditions: read-out: % inh.

Compared with `COc1ccc(CCNc2cc(C)nc3c(-c4ccccc4)cnn23)cc1OC` [Ex. 22, N-[2-(3,4-dimethoxyphenyl)ethyl]-5-methyl-3-phenyl-pyrazolo[1,5-a]pyrimidin-7-amine], `COc1ccc(CCNc2cc(C)nc3c(-c4ccc(C)cc4)cnn23)cc1OC` [Ex. 29, N-[2-(3,4-dimethoxyphenyl)ethyl]-5-methyl-3-(p-tolyl)pyrazolo[1,5-a]pyrimidin-7-amine] is higher in inhibition at 10 µM: 44% for the first, 62% for the second.

Going from `Cc1cc(NCCc2ccccc2)n2ncc(-c3ccc(Cl)cc3)c2n1` [Ex. 26, 3-(4-chlorophenyl)-5-methyl-N-phenethyl-pyrazolo[1,5-a]pyrimidin-7-amine] to `Cc1cc(NCc2ccccn2)n2nc(C)c(-c3ccc(F)cc3)c2n1` [Ex. 37, 3-(4-fluorophenyl)-2,5-dimethyl-N-(2-pyridylmethyl)pyrazolo[1,5-a]pyrimidin-7-amine], the inhibition at 10 µM rises from 30% to 78%.

Going from `COc1ccc(-c2c(C)nn3c(Nc4ccc(Cl)c(Cl)c4)cc(C)nc23)cc1OC` [Ex. 59, N-(3,4-dichlorophenyl)-3-(3,4-dimethoxyphenyl)-2,5-dimethyl-pyrazolo[1,5-a]pyrimidin-7-amine] to `Cc1cc(NCc2cccnc2)n2nc(C)c(-c3cccs3)c2n1` [Ex. 69, 2,5-dimethyl-N-(3-pyridylmethyl)-3-(2-thienyl)pyrazolo[1,5-a]pyrimidin-7-amine], the inhibition at 10 µM falls from 88% to 65%.

Compared with `COc1ccc(Nc2cc(C)nc3c(-c4ccc(OC)c(OC)c4)c(C)nn23)cc1` [Ex. 49, 3-(3,4-dimethoxyphenyl)-N-(4-methoxyphenyl)-2,5-dimethyl-pyrazolo[1,5-a]pyrimidin-7-amine], `COc1ccc(-c2c(C)nn3c(NCCc4ccncc4)cc(C)nc23)cc1OC` [Ex. 89, 3-(3,4-dimethoxyphenyl)-2,5-dimethyl-N-[2-(4-pyridyl)ethyl]pyrazolo[1,5-a]pyrimidin-7-amine] is higher in inhibition at 1 µM: 80% for the first, 100% for the second.

`COc1ccc(-c2c(C)nn3c(NCc4cccnc4)cc(C)nc23)cc1` [Ex. 65, 3-(4-methoxyphenyl)-2,5-dimethyl-N-(3-pyridylmethyl)pyrazolo[1,5-a]pyrimidin-7-amine] was tested, and the inhibition at 1 µM was 91%.

Tested on: Ljungan virus strain 145
Test: CPE inhibition in mammalian cell culture, LV145
Assay type: cell-based
Conditions: Parechovirus B; LV145, Conc. 10.0 μM

First: Cc1cc(NC(C)c2ccccc2)n2nc(C)c(-c3ccc(F)cc3)c2n1 (centres unmarked) [Ex. 17, 3-(4-fluorophenyl)-2,5-dimethyl-N-(1-phenylethyl)pyrazolo[1,5-a]pyrimidin-7-amine]
Second: Cc1cc(NC2CCCC2)n2nc(C)c(-c3ccc(F)cc3)c2n1 [Ex. 38, N-cyclopentyl-3-(4-fluorophenyl)-2,5-dimethyl-pyrazolo[1,5-a]pyrimidin-7-amine]
The inhibition at 10 µM of the first is lower: 75% for the first, 84% for the second.

First: COc1ccc(CCNc2cc(C)nc3c(-c4ccc(F)cc4)cnn23)cc1OC [Ex. 19, N-[2-(3,4-dimethoxyphenyl)ethyl]-3-(4-fluorophenyl)-5-methyl-pyrazolo[1,5-a]pyrimidin-7-amine]
Second: CCc1nn2c(NCCc3ccc(OC)c(OC)c3)cc(C)nc2c1-c1ccccc1 [Ex. 30, N-[2-(3,4-dimethoxyphenyl)ethyl]-2-ethyl-5-methyl-3-phenyl-pyrazolo[1,5-a]pyrimidin-7-amine]
The inhibition at 10 µM of the first is lower: 34% for the first, 100% for the second.

With `CCc1nn2c(NCCCn3ccnc3)cc(C)nc2c1-c1ccccc1` [Ex. 31, 2-ethyl-N-(3-imidazol-1-ylpropyl)-5-methyl-3-phenyl-pyrazolo[1,5-a]pyrimidin-7-amine] the inhibition at 10 µM was 14%.

Tested on: polio virus strain 1
Test: organism not typed
Assay type: cell-based
Conditions: read-out: % inh.

First: Cc1cc(NCCc2ccccc2)n2nc(C)c(-c3ccc(F)cc3)c2n1 [Ex. 14, 3-(4-fluorophenyl)-2,5-dimethyl-N-phenethyl-pyrazolo[1,5-a]pyrimidin-7-amine]
Second: COc1ccc(CCNc2cc(C)nc3c(-c4ccc(F)cc4)c(C)nn23)cc1OC [Ex. 15, N-[2-(3,4-dimethoxyphenyl)ethyl]-3-(4-fluorophenyl)-2,5-dimethyl-pyrazolo[1,5-a]pyrimidin-7-amine]
The inhibition at 10 µM of the first is lower: 73% for the first, 75% for the second.

First: Cc1cc(NCc2ccccc2)n2ncc(-c3ccc(F)cc3)c2n1 [Ex. 18, N-benzyl-3-(4-fluorophenyl)-5-methyl-pyrazolo[1,5-a]pyrimidin-7-amine]
Second: Cc1cc(NCc2ccccc2)n2ncc(-c3ccccc3)c2n1 [Ex. 21, N-benzyl-5-methyl-3-phenyl-pyrazolo[1,5-a]pyrimidin-7-amine]
The inhibition at 10 µM of the first is lower: 51% for the first, 78% for the second.

Going from `CC(C)(C)c1cc(NCCCn2ccnc2)n2ncc(-c3ccccc3)c2n1` [Ex. 23, 5-tert-butyl-N-(3-imidazol-1-ylpropyl)-3-phenyl-pyrazolo[1,5-a]pyrimidin-7-amine] to `Cc1cc(NCCCn2ccnc2)n2ncc(-c3ccc(Cl)cc3)c2n1` [Ex. 28, 3-(4-chlorophenyl)-N-(3-imidazol-1-ylpropyl)-5-methyl-pyrazolo[1,5-a]pyrimidin-7-amine], the inhibition at 10 µM falls from 94% to 72%.

Compared with `CCCc1cc(NCCCn2ccnc2)n2nc(C)c(-c3ccccc3)c2n1` [Ex. 24, N-(3-imidazol-1-ylpropyl)-2-methyl-3-phenyl-5-propyl-pyrazolo[1,5-a]pyrimidin-7-amine], `Cc1cc(NCCCn2ccnc2)n2nc(C)c(-c3cccs3)c2n1` [Ex. 71, N-(3-imidazol-1-ylpropyl)-2,5-dimethyl-3-(2-thienyl)pyrazolo[1,5-a]pyrimidin-7-amine] is lower in inhibition at 10 µM: 86% for the first, 72% for the second.

Compared with `COc1ccc(CCNc2cc(C)nc3c(-c4ccc(Cl)cc4)cnn23)cc1OC` [Ex. 27, 3-(4-chlorophenyl)-N-[2-(3,4-dimethoxyphenyl)ethyl]-5-methyl-pyrazolo[1,5-a]pyrimidin-7-amine], `Cc1ccc(CCNc2cc(C)nc3c(-c4ccc(Cl)cc4)c(C)nn23)cc1` [Ex. 32, 3-(4-chlorophenyl)-2,5-dimethyl-N-[2-(p-tolyl)ethyl]pyrazolo[1,5-a]pyrimidin-7-amine] is lower in inhibition at 10 µM: 35% for the first, 25% for the second.

First: COc1ccc(-c2c(C)nn3c(Nc4ccc(F)cc4)cc(C)nc23)cc1OC [Ex. 53, 3-(3,4-dimethoxyphenyl)-N-(4-fluorophenyl)-2,5-dimethyl-pyrazolo[1,5-a]pyrimidin-7-amine]
Second: Cc1cc(NCc2ccncc2)n2nc(C)c(-c3cccs3)c2n1 [Ex. 70, 2,5-dimethyl-N-(4-pyridylmethyl)-3-(2-thienyl)pyrazolo[1,5-a]pyrimidin-7-amine]
The inhibition at 10 µM of the first is lower: 84% for the first, 89% for the second.

First: Cc1cc(NCc2cccnc2)n2nc(C)c(-c3ccccc3)c2n1 [Ex. 39, 2,5-dimethyl-3-phenyl-N-(3-pyridylmethyl)pyrazolo[1,5-a]pyrimidin-7-amine]
Second: Cc1cc(NCc2ccccn2)n2nc(C)c(-c3ccc(Cl)cc3)c2n1 [Ex. 42, 3-(4-chlorophenyl)-2,5-dimethyl-N-(2-pyridylmethyl)pyrazolo[1,5-a]pyrimidin-7-amine]
The inhibition at 1 µM of the first is lower: 71% for the first, 96% for the second.

First: Cc1cc(NCCCn2ccnc2)n2nc(C)c(-c3ccc(Cl)cc3)c2n1 [Ex. 44, 3-(4-chlorophenyl)-N-(3-imidazol-1-ylpropyl)-2,5-dimethyl-pyrazolo[1,5-a]pyrimidin-7-amine]
Second: COc1ccc(-c2c(C)nn3c(NCCCn4ccnc4)cc(C)nc23)cc1 [Ex. 67, N-(3-imidazol-1-ylpropyl)-3-(4-methoxyphenyl)-2,5-dimethyl-pyrazolo[1,5-a]pyrimidin-7-amine]
The inhibition at 1 µM of the first is higher: 70% for the first, 63% for the second.

Going from `COc1ccc(-c2c(C)nn3c(Nc4ccc(C)cc4)cc(C)nc23)cc1OC` [Ex. 48, 3-(3,4-dimethoxyphenyl)-2,5-dimethyl-N-(p-tolyl)pyrazolo[1,5-a]pyrimidin-7-amine] to `CCc1ccc(Nc2cc(C)nc3c(-c4ccc(OC)c(OC)c4)c(C)nn23)cc1` [Ex. 62, 3-(3,4-dimethoxyphenyl)-N-(4-ethylphenyl)-2,5-dimethyl-pyrazolo[1,5-a]pyrimidin-7-amine], the inhibition at 1 µM rises from 79% to 97%.

Compared with `COc1ccc(-c2c(C)nn3c(Nc4cccc(C)c4)cc(C)nc23)cc1OC` [Ex. 50, 3-(3,4-dimethoxyphenyl)-2,5-dimethyl-N-(m-tolyl)pyrazolo[1,5-a]pyrimidin-7-amine], `CCOc1ccc(Nc2cc(C)nc3c(-c4ccc(OC)c(OC)c4)c(C)nn23)cc1` [Ex. 54, 3-(3,4-dimethoxyphenyl)-N-(4-ethoxyphenyl)-2,5-dimethyl-pyrazolo[1,5-a]pyrimidin-7-amine] is higher in inhibition at 1 µM: 81% for the first, 89% for the second.

Compared with `CCCCc1ccc(Nc2cc(C)nc3c(-c4ccc(OC)c(OC)c4)c(C)nn23)cc1` [Ex. 63, N-(4-butylphenyl)-3-(3,4-dimethoxyphenyl)-2,5-dimethyl-pyrazolo[1,5-a]pyrimidin-7-amine], `COc1ccc(-c2c(C)nn3c(Nc4cc(Cl)cc(Cl)c4)cc(C)nc23)cc1OC` [Ex. 64, N-(3,5-dichlorophenyl)-3-(3,4-dimethoxyphenyl)-2,5-dimethyl-pyrazolo[1,5-a]pyrimidin-7-amine] is lower in inhibition at 1 µM: 87% for the first, 20% for the second.

Compared with `COC(=O)c1ccc(-c2c(C)nn3c(NCc4ccc(F)cc4)cc(C)nc23)cc1` [Ex. 107, methyl 4-[7-[(4-fluorophenyl)methylamino]-2,5-dimethyl-pyrazolo[1,5-a]pyrimidin-3-yl]benzoate], `CCOc1ccc(-c2c(C)nn3c(NCc4ccc(F)cc4)cc(C)nc23)cc1OCC` [Ex. 109, 3-(3,4-diethoxyphenyl)-N-[(4-fluorophenyl)methyl]-2,5-dimethyl-pyrazolo[1,5-a]pyrimidin-7-amine] is higher in inhibition at 1 µM: 21% for the first, 88% for the second.

Going from `COc1ccc(-c2c(C)nn3c(Nc4ccc(NC(C)=O)cc4)cc(C)nc23)cc1OC` [Ex. 58, N-[4-[[3-(3,4-dimethoxyphenyl)-2,5-dimethyl-pyrazolo[1,5-a]pyrimidin-7-yl]amino]phenyl]acetamide] to `COc1ccc(-c2c(C)nn3c(NCc4ccnc(C)n4)cc(C)nc23)cc1OC` [Ex. 87, 3-(3,4-dimethoxyphenyl)-2,5-dimethyl-N-[(2-methylpyrimidin-4-yl)methyl]pyrazolo[1,5-a]pyrimidin-7-amine], the inhibition at 0.1 µM rises from 74% to 100%.

Molecule `COc1ccc(-c2c(C)nn3c(NCc4ccncc4)cc(C)nc23)cc1` [Ex. 66, 3-(4-methoxyphenyl)-2,5-dimethyl-N-(4-pyridylmethyl)pyrazolo[1,5-a]pyrimidin-7-amine] has an inhibition at 0.01 µM of 100%.
